The values that follow come from patent publication US9681664B2, “Macrocyclic picolinamides as fungicides” (Dow Agrosciences LLC, priority 2012, dated 2017).

Molecules are shown by their SMILES. Read-outs that look alike come from different tables or passages of the source.

Holding throughout (format): in vivo
Assay [1] has as its system Glomerella lagenarium; Anamorph: Colletotrichum lagenarium. Put plainly: Cucumber anthracnose (COLLLA) disease control. As to conditions: Colletotrichum orbiculare, 24 h, 1 Day Protectant, high volume, read-out: Disease Control COLLLA 1 DP. In a few lines:
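Compounds were dissolved in acetone, diluted with nine volumes of water containing 110 ppm Triton X-100 and sprayed to run-off on 12–14-day-old Bush Pickle cucumber seedlings. Plants were spore-inoculated 24 hr later and held 48 hr at 22 °C and 100% RH, then in a 22 °C growth room. Disease on sprayed leaves was then assessed.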

Assay [2] deals with Uncinula necator. Put plainly: Grape powdery mildew (UNCINE) disease control. As to conditions: Erysiphe necator, 24 h, High volume application, 1 Day Protectant, read-out: UNCINE 1 DP disease control. The method, then: Technical grades of materials were dissolved in acetone, which were then mixed with nine volumes of water containing 110 ppm Triton X-100. The fungicide solutions were applied onto wheat seedlings using an automated booth sprayer to run-off. All sprayed plants were allowed to air dry prior to further handling. All fungicides were evaluated using the aforementioned method for their activity vs. all target diseases. Wheat leaf blotch and brown rust activity were also evaluated using track spray applications, in which case the fungicides were formulated as EC formulations, containing 0.1% Trycol 5941 in the spray solutions. Grape seedlings (variety Carignane) were grown in soil-less Metro mix, with one plant per pot, and used in the test when approximately one month old. Plants were inoculated 24 hr after fungicide treatment by shaking spores from infected leaves over test plants. Plants were maintained in a greenhouse set at 20° C. until disease was fully developed. Fungicide formulation, application and disease assessment on the sprayed leaves followed the procedures as described in the Example A.

Assay [3] relates to Alternaria solani. Description: Tomato early blight (ALTESO) disease control. To be noted: 24 h, 1 Day Protectant, high volume, read-out: Disease Control ALTESO 1 DP. The method, then:
Technical grades of materials were dissolved in acetone, which were then mixed with nine volumes of water containing 110 ppm Triton X-100. The fungicide solutions were applied onto wheat seedlings using an automated booth sprayer to run-off. All sprayed plants were allowed to air dry prior to further handling. All fungicides were evaluated using the aforementioned method for their activity vs. all target diseases. Wheat leaf blotch and brown rust activity were also evaluated using track spray applications, in which case the fungicides were formulated as EC formulations, containing 0.1% Trycol 5941 in the spray solutions. Tomato plants (variety Outdoor girl) were propagated in soil-less Metro mix, with each pot having one plant, and used when 12 to 14 days old. Test plants were inoculated with an aqueous spore suspension of Alternaria solani 24 hr after fungicide treatments. After inoculation the plants were kept in 100% relative humidity (one day in a dark dew chamber followed by two to three days in a lighted dew chamber at 20° C.) to permit spores to germinate and infect the leaf. The plants were then transferred to a growth room at 22° C. for disease to develop. Fungicide formulation, application and disease assessment on the sprayed leaves followed the procedures as described in the Example A.

Assay [4] has as its system Rhyncosporium secalis. Description: Barley scald (RHYNSE) disease control. As to conditions: 24 h, High volume application, 1 Day Protectant, read-out: RHYNSE 1 DP disease control. As for the experimental part: Technical grades of materials were dissolved in acetone, which were then mixed with nine volumes of water containing 110 ppm Triton X-100. The fungicide solutions were applied onto wheat seedlings using an automated booth sprayer to run-off. All sprayed plants were allowed to air dry prior to further handling. All fungicides were evaluated using the aforementioned method for their activity vs. all target diseases. Wheat leaf blotch and brown rust activity were also evaluated using track spray applications, in which case the fungicides were formulated as EC formulations, containing 0.1% Trycol 5941 in the spray solutions. Barley seedlings (variety Harrington) were propagated in soil-less Metro mix, with each pot having 8 to 12 plants, and used in the test when first leaf was fully emerged. Test plants were inoculated by an aqueous spore suspension of Rhyncosporium secalis 24 hr after fungicide treatments. After inoculation the plants were kept in a dew room at 20° C. with 100% relative humidity for 48 hr. The plants were then transferred to a greenhouse set at 20° C. for disease to develop. Fungicide formulation, application and disease assessment on the sprayed leaves followed the procedures as described in the Example A.

Assay [5] deals with Erysiphe cichoracearum. Description: Powdery mildew of cucumber (ERYSCI) disease control. As to conditions: Golovinomyces cichoracearum, 24 h, 1 Day Protectant, high volume, read-out: Disease Control ERYSCI 1 DP. The method, then: Technical grades of materials were dissolved in acetone, which were then mixed with nine volumes of water containing 110 ppm Triton X-100. The fungicide solutions were applied onto wheat seedlings using an automated booth sprayer to run-off. All sprayed plants were allowed to air dry prior to further handling. All fungicides were evaluated using the aforementioned method for their activity vs. all target diseases. Wheat leaf blotch and brown rust activity were also evaluated using track spray applications, in which case the fungicides were formulated as EC formulations, containing 0.1% Trycol 5941 in the spray solutions. Cucumber seedlings (variety Bush Pickle) were grown in soil-less Metro mix, with one plant per pot, and used in the test when 12 to 14 days old. Plants were inoculated with a spore suspension 24 hr following fungicide treatments. After inoculation the plants remained in the greenhouse set at 20° C. until disease was fully expressed. Fungicide formulation, application and disease assessment on the sprayed leaves followed the procedures as described in the Example A.

Assay [6] relates to Puccinia triticina; Synonym: Puccinia recondite f. sp. tritici. Put plainly: Wheat brown rust (PUCCRT) disease control on wheat seedlings. To be noted: Puccinia triticina; for pest or weed control at 121.5 g/ha: low volume application, 121.5 g/H. In a few lines:
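Acetone solutions diluted in nine volumes of water with 110 ppm Triton X-100 sprayed to run-off on first-leaf Yuma wheat seedlings (track spray: EC with 0.1% Trycol 5941). Puccinia triticina spores inoculated before or after treatment; overnight dark dew at 22° C., 100% RH, then greenhouse at 24° C. for disease development.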

Where [7] appears, read: 24 h, High volume application, 1 Day Protectant, read-out: PUCCRT 1DP disease control.
[8] abbreviates: 72 h, High volume application, 3 Day Curative, read-out: PUCCRT 3DC disease control.
[9] abbreviates: 24 h, Wheat Brown Rust, 1 Day Protectant, read-out: Disease Control PUCCRT 1 DP 121.5 g/H.
[10] abbreviates: 72 h, Wheat Brown Rust, 3 Day Curative, read-out: Disease Control PUCCRT 3 DC 121.5 g/H.
Where [11] appears, read: 24 h, Wheat Brown Rust, 1 Day Protectant, high volume application, read-out: Disease Control PUCCRT 1 DP 100 ppm.
Setting [12] is: 72 h, Wheat Brown Rust, 3 Day Curative, high volume application, read-out: Disease Control PUCCRT 3 DC 100 ppm.

Turning to `CCCO[C@H]1CCC[C@H](NC(=O)c2nccc(OC)c2OCOC(C)=O)C(=O)O[C@@H](C)[C@@H]1Oc1ccccc1` [F138], the pest or weed control at 100 ppm in assay [1] was in the range of 80 to 100%; in assay [2], 0 to 80%; in assay [3], 80 to 100%; in assay [4], 80 to 100%; in assay [5] it was 0 to 80%; in assay [6] (setting [7]), 80 to 100%. For the same compound, the pest or weed control at 100 ppm in assay [6] (setting [8]) lay within 80 to 100%.

Regarding `COc1ccnc(C(=O)N[C@H]2CCC[C@H](Oc3ccccc3)[C@@H](Oc3ccccc3)[C@H](C)OC2=O)c1OCOC(C)=O` [F20], the pest or weed control at 100 ppm in assay [1] fell in the range of 80 to 100%; in assay [2], 0 to 80%; in assay [3], 0 to 80%; in assay [4], 80 to 100%; in assay [5] it was 0 to 80%; in assay [6] (setting [7]), 80 to 100%. Also, the pest or weed control at 100 ppm in assay [6] (setting [8]) was 80 to 100%.

As to `COc1ccnc(C(=O)N[C@H]2CCC[C@H](OCC(C)C)[C@@H](OC)[C@H](C)OC2=O)c1OCOC(=O)C(C)C` [F254], the pest or weed control at 100 ppm in assay [1] is 80 to 100%; in assay [2], 0 to 80%; in assay [3], 0 to 80%; in assay [4] it was 80 to 100%; in assay [5], less than 0%. Besides, the pest or weed control at 121.5 g/ha in assay [6] (setting [9]) and in assay [6] (setting [10]) was 80 to 100% each time.

Take `C=C(C)CO[C@H]1CCC[C@H](NC(=O)c2nccc(OC)c2OCOC(=O)C(C)C)C(=O)O[C@@H](C)[C@@H]1OC` [F253]: the pest or weed control at 100 ppm in assay [1] was 80 to 100%; in assay [2], 0 to 80%; in assay [3] it was 0 to 80%; in assay [4], 0 to 80%; in assay [5], less than 0%. The pest or weed control at 121.5 g/ha in assay [6] (setting [9]) and in assay [6] (setting [10]) was 80 to 100% throughout.

For the compound `CCOCC(=O)OCOc1c(OC)ccnc1C(=O)N[C@H]1CCC[C@H](Oc2ccccc2)[C@@H](OC(=O)C2CCCC2)[C@H](C)OC1=O` [F237], the pest or weed control at 100 ppm in assay [1] was 0 to 80%; in assay [2] it was 0 to 80%; in assay [3], 0 to 80%; in assay [4], less than 0%; in assay [5], less than 0%; in assay [6] (setting [11]), 80 to 100%. Further, the pest or weed control at 100 ppm in assay [6] (setting [12]) fell in the range of 80 to 100%. In addition, the results for the pest or weed control at 121.5 g/ha in assay [6] (setting [9]) and in assay [6] (setting [10]) were 80 to 100% and 0 to 80%, respectively.

As to `COc1ccnc(C(=O)N[C@H]2CCC[C@H](OCC(C)C)[C@@H](OC3CCCC3)[C@H](C)OC2=O)c1OCOC(C)=O` [F39], the pest or weed control at 100 ppm in assay [1] was 80 to 100%; in assay [2], 0 to 80%; in assay [3] it was 80 to 100%; in assay [4] it was 80 to 100%; in assay [5], 80 to 100%; in assay [6] (setting [7]), 80 to 100%. The pest or weed control at 100 ppm in assay [6] (setting [8]) fell in the range of 80 to 100%.

As to `CCCO[C@H]1CCC[C@H](NC(=O)c2nccc(OC)c2OC(=O)CCOC)C(=O)O[C@@H](C)[C@@H]1Oc1ccccc1` [F140], the pest or weed control at 100 ppm was 80 to 100% in assay [1]; 0 to 80% in assay [2]; 80 to 100% in assay [3]; 80 to 100% in assay [4]; less than 0% in assay [5]; 80 to 100% in assay [6] (setting [7]). For the same compound, the pest or weed control at 100 ppm in assay [6] (setting [8]) was in the range of 80 to 100%.

Take `COc1ccnc(C(=O)N[C@H]2CCC[C@H](Oc3ccccc3)[C@@H](OC(=O)C3CC3)[C@H](C)OC2=O)c1OCOC(=O)C(C)C` [F241]: the pest or weed control at 100 ppm in assay [1] is 80 to 100%; in assay [2], 0 to 80%; in assay [3] it was 0 to 80%; in assay [4], 0 to 80%; in assay [5], less than 0%; in assay [6] (setting [11]), 80 to 100%. In addition, the pest or weed control at 100 ppm in assay [6] (setting [12]) is 80 to 100%. Besides, the pest or weed control at 121.5 g/ha in assay [6] (setting [9]) and in assay [6] (setting [10]) was 80 to 100% in each case.
